Measurements as given in US9540366B2, “Ring-fused heterocyclic compound” (Kyowa Hakko Kirin Co., Ltd., priority 2012, dated 2017).
pIC50: −log10 of the molar value. Where two headings read alike, the source gives them in different places.

Legend:
[1] = target: T1, human Cav3.2 T-type Ca2+ channel (Homo sapiens, UniProt O95180); test: Inhibitory effect for intracellular calcium response via Cav3.2 T-type Ca2+ channels (FLIPR Calcium 3 Assay Kit); format: cell-based
T1 construct: expressed in transfected cells; host or cells: KJMGER8 cells (Namalwa cell-derived cell line)

[2] = system: morphine-induced pruritus mice; test: Inhibitory effect for pruritus in morphine-induced pruritus mice; format: in vivo; conditions: given 30 minutes or 1 hour before intrathecal morphine, scratching counted for 30 minutes, male ddY mice
Experimental: Inhibitory Effect for Pruritus in Morphine-Induced Pruritus Mice
Morphine (1 nmol/5 μL, dissolved in physiological saline) or physiological saline was intrathecally administered between the fifth and sixth lumbar vertebrae of male ddY mice using a microsyringe fitted with a 30-gauge injection needle. Mice to which only morphine was administered were referred to as a control group, and mice to which only physiological saline was administered were referred to as a physiological saline-administered group.
The number of scratching behavior with the hind legs which began to be observed immediately after the morphine administration was measured for 30 minutes. Because mice show continuous scratching actions in each scratching behavior, a series of such actions was counted as a single scratching behavior.
Each test compound was administered 30 minutes or 1 hour before the morphine administration. The test compound was suspended in a 0.5% methylcellulose solution and was prepared plural administration solutions of different concentrations, and each of them was orally administered in a volume of 10 mL/kg.

[3] = human Cav3.2-expressing KJMGER8 cells (Namalwa-derived), calcium response induced by 5 mmol/L CaCl2, 3 μmol/L mibefradil as reference, read-out: IC50 for the human Cav3.2 T-type Ca2+ current

T1 sequence (O95180 whole entry): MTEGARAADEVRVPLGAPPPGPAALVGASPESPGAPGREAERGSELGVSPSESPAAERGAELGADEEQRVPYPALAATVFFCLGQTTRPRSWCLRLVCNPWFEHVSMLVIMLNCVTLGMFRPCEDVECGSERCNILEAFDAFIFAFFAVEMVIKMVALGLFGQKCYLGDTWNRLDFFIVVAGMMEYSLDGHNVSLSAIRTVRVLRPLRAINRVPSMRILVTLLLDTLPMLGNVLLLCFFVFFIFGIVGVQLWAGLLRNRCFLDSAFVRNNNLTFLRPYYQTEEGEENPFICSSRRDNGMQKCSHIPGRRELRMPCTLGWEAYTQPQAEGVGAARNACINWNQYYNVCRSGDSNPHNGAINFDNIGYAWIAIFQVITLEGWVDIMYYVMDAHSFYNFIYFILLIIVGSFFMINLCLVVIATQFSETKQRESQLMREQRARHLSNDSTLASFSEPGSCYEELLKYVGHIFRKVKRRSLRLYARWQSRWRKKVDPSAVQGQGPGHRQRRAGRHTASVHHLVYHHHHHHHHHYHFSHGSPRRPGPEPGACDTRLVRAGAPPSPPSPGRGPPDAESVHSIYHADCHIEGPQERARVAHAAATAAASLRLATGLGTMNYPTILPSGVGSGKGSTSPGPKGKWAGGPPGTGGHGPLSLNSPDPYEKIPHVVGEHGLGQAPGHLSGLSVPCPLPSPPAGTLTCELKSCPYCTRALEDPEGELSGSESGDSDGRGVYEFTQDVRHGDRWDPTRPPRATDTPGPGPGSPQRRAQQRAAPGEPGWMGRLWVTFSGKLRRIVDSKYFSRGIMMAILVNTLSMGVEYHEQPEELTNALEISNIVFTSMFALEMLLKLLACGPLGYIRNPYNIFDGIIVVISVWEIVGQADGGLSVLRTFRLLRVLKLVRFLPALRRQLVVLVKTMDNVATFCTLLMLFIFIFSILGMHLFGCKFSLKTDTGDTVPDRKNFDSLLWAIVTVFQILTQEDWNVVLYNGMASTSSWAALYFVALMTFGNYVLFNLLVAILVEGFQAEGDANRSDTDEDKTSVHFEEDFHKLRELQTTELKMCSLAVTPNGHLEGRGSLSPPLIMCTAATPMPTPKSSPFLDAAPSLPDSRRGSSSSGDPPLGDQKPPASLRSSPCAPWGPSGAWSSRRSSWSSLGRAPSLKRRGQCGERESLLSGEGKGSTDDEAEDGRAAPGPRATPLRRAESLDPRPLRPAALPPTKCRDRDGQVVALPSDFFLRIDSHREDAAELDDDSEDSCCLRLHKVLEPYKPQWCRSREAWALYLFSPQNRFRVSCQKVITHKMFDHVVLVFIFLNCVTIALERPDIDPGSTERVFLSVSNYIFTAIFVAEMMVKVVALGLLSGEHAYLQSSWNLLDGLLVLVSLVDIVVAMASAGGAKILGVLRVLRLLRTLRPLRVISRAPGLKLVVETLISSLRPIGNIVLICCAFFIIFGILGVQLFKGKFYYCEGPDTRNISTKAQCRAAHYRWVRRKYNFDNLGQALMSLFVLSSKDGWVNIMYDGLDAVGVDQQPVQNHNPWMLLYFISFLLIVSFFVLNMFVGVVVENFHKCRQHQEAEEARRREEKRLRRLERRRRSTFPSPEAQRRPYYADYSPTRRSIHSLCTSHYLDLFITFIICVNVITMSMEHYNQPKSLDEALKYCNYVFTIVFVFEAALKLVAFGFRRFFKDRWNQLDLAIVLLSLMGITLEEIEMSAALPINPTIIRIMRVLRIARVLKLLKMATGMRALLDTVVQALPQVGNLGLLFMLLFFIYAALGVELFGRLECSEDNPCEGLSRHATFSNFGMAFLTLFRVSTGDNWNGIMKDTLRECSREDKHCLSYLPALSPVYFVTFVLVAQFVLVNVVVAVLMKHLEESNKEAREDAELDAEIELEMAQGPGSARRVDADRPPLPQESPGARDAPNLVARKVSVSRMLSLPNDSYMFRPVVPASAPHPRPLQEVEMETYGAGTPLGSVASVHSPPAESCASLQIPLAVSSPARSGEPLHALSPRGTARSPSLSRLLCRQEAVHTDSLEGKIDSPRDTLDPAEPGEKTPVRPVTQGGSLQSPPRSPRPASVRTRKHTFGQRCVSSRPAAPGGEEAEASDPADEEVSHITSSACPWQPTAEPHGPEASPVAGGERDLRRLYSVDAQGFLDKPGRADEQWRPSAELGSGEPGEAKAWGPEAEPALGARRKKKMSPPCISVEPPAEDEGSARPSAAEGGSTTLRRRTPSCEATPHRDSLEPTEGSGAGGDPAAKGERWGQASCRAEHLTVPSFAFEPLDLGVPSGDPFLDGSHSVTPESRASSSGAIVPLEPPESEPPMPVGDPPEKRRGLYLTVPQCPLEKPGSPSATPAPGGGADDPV

SMILES	pIC50 [1]	inhibition of the increase of the scratching behavior in morphine-induced pruritus mice ([2]; oral dose of 30 mg/kg or less)	pIC50 [1, 3]	inhibition of the increase of the scratching behavior in morphine-induced pruritus mice ([2]; oral dose of 10 mg/kg or less)
CC(F)(F)c1nc2cc(C(=O)NC3CCC(F)(F)CC3)c(Cl)cn2c1CC1CCC(F)(F)CC1 [Compound 15, 6-Chloro-N-(4,4-difluorocyclohexyl)-3-[(4,4-difluorocyclohexyl)methyl]-2-(1,1-difluoroethyl)imidazo[1,2-a]pyridine-7-carboxamide]	≥ 7.00	inhibited the increase of the scratching behavior		
N#Cc1cc(C(=O)NC2CCOCC2)cc2nc(C(F)(F)F)c(CC3CCC(F)(F)CC3)n12 [Compound 40]	≥ 7.00	inhibited the increase of the scratching behavior		
N#Cc1cc(C(=O)NCC2CC2)cc2nc(C(F)(F)F)c(CC3CCC(F)(F)CC3)n12 [Compound 53, 5-Cyano-N-(cyclopropylmethyl)-3-[(4,4-difluorocyclohexyl)methyl]-2-(trifluoromethyl)imidazo[1,2-a]pyridine-7-carboxamide]		inhibited the increase of the scratching behavior	≥ 7.00	
COC(C)(C)CNC(=O)c1cc(C#N)n2c(CC3CCC(F)(F)CC3)c(C(F)(F)F)nc2c1 [Compound 55, 5-Cyano-3-[(4,4-difluorocyclohexyl)methyl]-N-(2-methoxy-2-methylpropyl)-2-(trifluoromethyl)imidazo[1,2-a]pyridine-7-carboxamide]	≥ 7.00	inhibited the increase of the scratching behavior		
O=C(NC1CC2(COC2)C1)c1cc(Cl)n2c(CC3CCC(F)(F)CC3)c(C(F)(F)F)nc2c1 [Compound 129, 5-Chloro-3-[(4,4-difluorocyclohexyl)methyl]-N-(2-oxaspiro[3.3]heptan-6-yl)-2-(trifluoromethyl)imidazo[1,2-a]pyridine-7-carboxamide]		inhibited the increase of the scratching behavior		
COC(C)(C)CNC(=O)c1cc(C#N)n2c(CC3CCC(F)(F)CC3)c(C(C)(F)F)nc2c1 [Compound 164, 5-Cyano-3-[(4,4-difluorocyclohexyl)methyl]-2-(1,1-difluoroethyl)-N-(2-methoxy-2-methylpropyl)imidazo[1,2-a]pyridine-7-carboxamide]	≥ 7.00			inhibited the increase of the scratching behavior
COC(C)(C)CNC(=O)c1cc2nc(C(F)(F)F)c(CC3CCC(F)(F)CC3)n2c(C#N)c1Cl [Compound 173, 6-Chloro-5-cyano-3-[(4,4-difluorocyclohexyl)methyl]-N-(2-methoxy-2-methylpropyl)-2-(trifluoromethyl)imidazo[1,2-a]pyridine-7-carboxamide]	≥ 7.00			inhibited the increase of the scratching behavior
N#CC1(CNC(=O)c2cc(Cl)n3c(CC4CCC(F)(F)CC4)c(C(F)(F)F)nc3c2)CC1 [Compound 176, 5-Chloro-N-[(1-cyanocyclopropyl)methyl]-3-[(4,4-difluorocyclohexyl)methyl]-2-(trifluoromethyl)imidazo[1,2-a]pyridine-7-carboxamide]			≥ 7.00	inhibited the increase of the scratching behavior
N#Cc1cc(C(=O)N[C@H]2C[C@@H]3CC[C@H]2O3)cc2nc(C(F)(F)F)c(CC3CCC(F)(F)CC3)n12 [Compound 178, N-[(1R,2S,4S)-7-Oxabicyclo[2.2.1]heptan-2-yl]-5-cyano-3-[(4,4-difluorocyclohexyl)methyl]-2-(trifluoromethyl)imidazo[1,2-a]pyridine-7-carboxamide]			≥ 7.00	inhibited the increase of the scratching behavior
CC(C)c1nc2cc(C(=O)N[C@H]3C[C@@H]4CC[C@H]3O4)cc(C#N)n2c1CC1CCC(F)(F)CC1 [Compound 180, N-[(1R,2S,4S)-7-Oxabicyclo[2.2.1]heptan-2-yl]-5-cyano-3-[(4,4-difluorocyclohexyl)methyl]-2-isopropylimidazo[1,2-a]pyridine-7-carboxamide]	≥ 7.00			inhibited the increase of the scratching behavior
Cc1c(C(=O)NC2CCOCC2)cc2nc(C(F)(F)F)c(CC3CCC(F)(F)CC3)n2c1C#N [Compound 181, 5-Cyano-3-[(4,4-difluorocyclohexyl)methyl]-6-methyl-N-(tetrahydro-2H-pyran-4-yl)-2-(trifluoromethyl)imidazo[1,2-a]pyridine-7-carboxamide]			≥ 7.00	inhibited the increase of the scratching behavior
CN(C)CC(C)(C)CNC(=O)c1cc(C#N)n2c(CC3CCC(F)(F)CC3)c(C(F)(F)F)nc2c1 [Compound 182, 5-Cyano-3-[(4,4-difluorocyclohexyl)methyl]-N-[3-(dimethylamino)-2,2-dimethylpropyl]-2-(trifluoromethyl)imidazo[1,2-a]pyridine-7-carboxamide]			≥ 7.00	inhibited the increase of the scratching behavior
CC(F)(F)c1nc2cc(C(=O)N[C@H]3C[C@@H]4CC[C@H]3O4)cc(C#N)n2c1CC1CCC(F)(F)CC1 [Compound 183, N-[(1R,2S,4S)-7-Oxabicyclo[2.2.1]heptan-2-yl]-5-cyano-3-[(4,4-difluorocyclohexyl)methyl]-2-(1,1-difluoroethyl)imidazo[1,2-a]pyridine-7-carboxamide]	≥ 7.00			inhibited the increase of the scratching behavior
COC(C)(C)CNC(=O)c1cc2nc(C(C)(F)F)c(CC3CCC(F)(F)CC3)n2c(C#N)c1C [Compound 184, 5-Cyano-3-[(4,4-difluorocyclohexyl)methyl]-2-(1,1-difluoroethyl)-N-(2-methoxy-2-methylpropyl)-6-methylimidazo[1,2-a]pyridine-7-carboxamide]	≥ 7.00			inhibited the increase of the scratching behavior
Cc1c(C(=O)NC2CCOCC2)cc2nc(C(C)(F)F)c(CC3CCC(F)(F)CC3)n2c1C#N [Compound 185, 5-Cyano-3-[(4,4-difluorocyclohexyl)methyl]-2-(1,1-difluoroethyl)-6-methyl-N-(tetrahydro-2H-pyran-4-yl)imidazo[1,2-a]pyridine-7-carboxamide]	≥ 7.00			inhibited the increase of the scratching behavior
[2H]C([2H])([2H])OC(C)(C)CNC(=O)c1cc(C#N)n2c(CC3CCC(F)(F)CC3)c(C(F)(F)F)nc2c1 [Compound 186, 5-Cyano-3-[(4,4-difluorocyclohexyl)methyl]-N-(2-methoxy-d3-2-methylpropyl)-2-(trifluoromethyl)imidazo[1,2-a]pyridine-7-carboxamide]	≥ 7.00			inhibited the increase of the scratching behavior
CC(C)(CNC(=O)c1cc(C#N)n2c(CC3CCC(F)(F)CC3)c(C(F)(F)F)nc2c1)S(C)(=O)=O [Compound 189, 5-Cyano-3-[(4,4-difluorocyclohexyl)methyl]-N-[2-methyl-2-(methylsulfonyl)propyl]-2-(trifluoromethyl)imidazo[1,2-a]pyridine-7-carboxamide]			≥ 7.00	inhibited the increase of the scratching behavior
[2H]C([2H])([2H])OC(C)(C)CNC(=O)c1cc2nc(C(C)(F)F)c(CC3CCC(F)(F)CC3)n2c(C#N)c1C [Compound 190, 5-Cyano-3-[(4,4-difluorocyclohexyl)methyl]-2-(1,1-difluoroethyl)-N-(2-methoxy-d3-2-methylpropyl)-6-methylimidazo[1,2-a]pyridine-7-carboxamide]	≥ 7.00			inhibited the increase of the scratching behavior
O=C(NC1CCOCC1)c1cc2nc(C(F)(F)F)c(CC3CCC(F)(F)CC3)n2c(Cl)c1Cl [Compound 193]				inhibited the increase of the scratching behavior
CC(C)(C)NC(=O)c1cc(C#N)n2c(CC3CCC(F)(F)CC3)c(C(C)(F)F)nc2c1 [Compound 225, N-tert-Butyl-5-cyano-3-[(4,4-difluorocyclohexyl)methyl]-2-(1,1-difluoroethyl)imidazo[1,2-a]pyridine-7-carboxamide]	≥ 7.00			
CC(C)c1nc2cc(C(=O)NC(C)(C)C)cc(C#N)n2c1CC1CCC(F)(F)CC1 [Compound 226, N-tert-Butyl-5-cyano-3-[(4,4-difluorocyclohexyl)methyl]-2-isopropylimidazo[1,2-a]pyridine-7-carboxamide]	≥ 7.00			
CC(C)(C)NC(=O)c1cc2nc(C(F)(F)F)c(CC3CCC(F)(F)CC3)n2c(Cl)c1Cl [Compound 227, N-tert-Butyl-5,6-dichloro-3-[(4,4-difluorocyclohexyl)methyl]-2-(trifluoromethyl)imidazo[1,2-a]pyridine-7-carboxamide]	≥ 7.00			
